Test [1] addresses T1, b-Raf (Homo sapiens, UniProt P15056).
T1 construct: Full-length wild type b-Raf is expressed in recombinant form and purified from bacterial or insect cells; made in house; host or cells: bacterial or insect cells
Description: Raf biochemical assay (in vitro kinase assay, 32-P transfer from ATP to Mek1). As to conditions: full-length wild type b-Raf, Mek1 substrate; for Ki: 25 μM ATP; for inhibition at 1 µM: @ 1 μM compound, read-out: b-Raf % inhib @ 1 μM. As for the experimental part: Compounds of the present invention were evaluated for potency against b-Raf using an in vitro kinase assay. Raf kinase activity is measured in vitro by determining transfer of radiolabeled 32-P phosphate from ATP to the specific Raf substrate Mek1. Full-length wild type b-Raf is expressed in recombinant form and purified from bacterial or insect cells. Recombinant Mek1 is purified from E. coli bacterial cells. In one assay format (designated G1), the full-length wild type Mek1 is used as the b-Raf substrate. In a second assay format (designated G2), the full-length K97R Mek1 mutant is used as the b-Raf substrate.
In vitro kinase assays are performed in solution containing the following; 50 mM Hepes (pH 7.4), 5 nM b-Raf, 0.8 μM Mek1, 10 mM MgCl2, 25 μM ATP, 0.002% (v/v) Tween-20, 5 μg/mL leupeptin, 1.2 mM DTT, 2% (v/v) DMSO, 0.2-1.0 μCi [γ-^32P]ATP per well.
The assays are performed in wells of a 96 well polypropylene round bottom plate, each well containing 43.5 μL assay mix and 1.5 μL inhibitor compound or DMSO vehicle. 15 μL of b-Raf mix is added and the plate is shaken on a plate shaker and preincubated for 10 minutes at ambient temperature. The reaction is started by addition of 15 μL ATP mix and shaking. The reaction is terminated after 40 minutes by addition of 25 μL 0.5 M EDTA (pH 7.4).
60 μL of the stopped reaction is transferred to a well of a 96-well nylon 66 Biodyne A membrane Silent Screen filter plate (Nalge/Nunc: 256081). The wells are filtered and washed five times with 0.85% phosphoric acid. The filter is placed in a tray with about 50 mL 0.85% phosphoric acid and gently rotated for 10 minutes on an orbital shaker. The procedure is repeated once with fresh 0.85% phosphoric acid. Five samples of 0.5 μL of ATP mix are also spotted onto filter paper for calculation of specific activity. The filters are air dried for one hour and sandwiched between cellophane wrap on an Amersham Biosciences Storage Phosphor Screen and developed at least over night. The image is read using a Molecular Dynamics Storm 840 phosphoimager. Volumes of spots are calculated using ImageQuant5.1.
Raf kinase activity is calculated from the specific activity of [32-P] ATP, 32-P incorporation into Mek1, and the concentration of b-Raf.

The target of test [2] is T2, b-Raf (Homo sapiens, UniProt P15056, V600E).
T2 construct: endogenous in cells; host or cells: A2058 human melanoma cells
Description: Raf cellular assay (phospho-Mek1/2 ELISA in A2058 cells). It is filed as cell-based. As to conditions: Table 2; human melanoma A2058 cells (b-Raf mutation), Mek1/2 Ser217/221 phosphorylation, 1 hour incubation; read-out: pMEK IC50. An outline of the steps:
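A2058 melanoma cells (B-Raf mutant), seeded overnight in 10% FBS DMEM, were exposed to compounds (11-point 1:3 series, duplicate) for 1 h at 37 °C. Lysates were captured on anti-Mek1-coated plates and Mek1/2 Ser217/221 phosphorylation was read by anti-phospho-Mek1/2 ELISA, HRP/TMB, 450 nm.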

Where only a bound is given, the exact number is not on record here.

T2 sequence (P15056 whole entry V600E): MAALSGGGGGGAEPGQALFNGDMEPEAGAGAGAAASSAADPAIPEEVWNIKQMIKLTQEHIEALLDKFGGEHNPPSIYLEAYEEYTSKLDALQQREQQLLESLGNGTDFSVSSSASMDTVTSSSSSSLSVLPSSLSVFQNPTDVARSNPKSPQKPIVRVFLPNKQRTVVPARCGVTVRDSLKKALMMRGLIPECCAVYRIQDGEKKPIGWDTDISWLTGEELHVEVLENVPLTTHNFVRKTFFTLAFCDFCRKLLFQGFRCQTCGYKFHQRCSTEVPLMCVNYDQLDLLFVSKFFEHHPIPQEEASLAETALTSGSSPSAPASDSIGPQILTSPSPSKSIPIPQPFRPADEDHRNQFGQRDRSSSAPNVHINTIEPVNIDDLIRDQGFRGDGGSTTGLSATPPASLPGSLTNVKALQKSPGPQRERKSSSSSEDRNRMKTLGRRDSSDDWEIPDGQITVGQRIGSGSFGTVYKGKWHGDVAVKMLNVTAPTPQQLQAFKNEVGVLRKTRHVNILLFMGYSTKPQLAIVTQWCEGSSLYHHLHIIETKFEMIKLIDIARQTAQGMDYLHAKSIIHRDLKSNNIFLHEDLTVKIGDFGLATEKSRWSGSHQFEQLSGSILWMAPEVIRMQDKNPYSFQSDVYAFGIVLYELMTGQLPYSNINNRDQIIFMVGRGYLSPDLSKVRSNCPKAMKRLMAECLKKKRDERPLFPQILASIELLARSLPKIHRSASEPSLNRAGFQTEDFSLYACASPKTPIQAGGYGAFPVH
T1 sequence (P15056 whole entry): as the sequence (P15056 whole entry V600E) above, with E600V counted along it

Usually Ki stands for a dissociation constant, usually derived from enzyme kinetics or from competition with a known ligand. Low readings indicate a stronger hold on the target, high ones a looser hold on the target. By IC50 is commonly meant the midpoint of a concentration-inhibition curve. `CC(C)n1cc(-c2ccnc(NC[C@H](C)O)n2)c(-c2cnc3[nH]cc(Cl)c3c2)n1` [Example B-11, (2S)-1-(4-(3-(3-chloro-1H-pyrrolo[2,3-b]pyridin-5-yl)-1-isopropyl-1H-pyrazol-4-yl)pyrimidin-2-ylamino)propan-2-ol] returned a Ki in test [1] of less than 0.1 nM. Further, in test [2], the IC50 amounted to 7 nM.
The matching figures for `CC(C)n1cc(-c2ccnc(NC[C@H](C)O)n2)c(-c2cnc3c(c2)CCN3)n1` [Example B-12, (2S)-1-(4-(3-(2,3-dihydro-1H-pyrrolo[2,3-b]pyridin-5-yl)-1-isopropyl-1H-pyrazol-4-yl)pyrimidin-2-ylamino)propan-2-ol]: 1.6 nM and 450 nM.
For the molecule `CCn1cc(CNc2nccc(-c3cn(C(C)C)nc3-c3cnc4[nH]ccc4c3)n2)cn1` [Example D-10, N-[(1-ethyl-1H-pyrazol-4-yl)methyl]-4-[1-isopropyl-3-(1H-pyrrolo[2,3-b]pyridin-5-yl)-1H-pyrazol-4-yl]pyrimidin-2-amine], in test [1], the inhibition at 1 µM came to 100% and the Ki came to 2 nM. The IC50 in test [2] was determined as 923 nM.
The matching figures for `CC(C)n1cc(-c2ccnc(NCCO)n2)c(-c2cnc3[nH]ccc3c2)n1` [Example D-6, 2-({4-[1-isopropyl-3-(1H-pyrrolo[2,3-b]pyridin-5-yl)-1H-pyrazol-4-yl]pyrimidin-2-yl}amino)ethanol]: 101%, 1.36 nM and 369 nM.
Take `CC(C)n1cc(-c2ccnc(NCCn3cccn3)n2)c(-c2cnc3[nH]ccc3c2)n1` [Example D-4, 4-[1-isopropyl-3-(1H-pyrrolo[2,3-b]pyridin-5-yl)-1H-pyrazol-4-yl]-N-[2-(1H-pyrazol-1-yl)ethyl]pyrimidin-2-amine]: in test [1], the inhibition at 1 µM came to 100% and the Ki was less than 0.1 nM. Moreover, the IC50 in test [2] stood at 149 nM.
`C[C@H](O)CNc1nccc(-c2cn(CC(F)F)nc2-c2cnc3[nH]ccc3c2)n1` [Example B-14, (2S)-1-(4-(1-(2,2-difluoroethyl)-3-(1H-pyrrolo[2,3-b]pyridin-5-yl)-1H-pyrazol-4-yl)pyrimidin-2-ylamino)propan-2-ol]: in test [1], the inhibition at 1 µM stood at 100% and the Ki stood at 0.7 nM. Moreover, the IC50 in test [2] was determined as 510 nM.
For the molecule `CC(C)n1cc(-c2ccnc(NCC3CCOC3)n2)c(-c2cnc3[nH]ccc3c2)n1` [Example D-12, 4-[1-isopropyl-3-(1H-pyrrolo[2,3-b]pyridin-5-yl)-1H-pyrazol-4-yl]-N-(tetrahydrofuran-3-ylmethyl)pyrimidin-2-amine], in test [1], the inhibition at 1 µM stood at 99% and the Ki was 1.4 nM. In test [2], the IC50 is 1520 nM.
For the molecule `CC(C)n1cc(-c2ccnc(NCc3ccccn3)n2)c(-c2cnc3[nH]ccc3c2)n1` [Example D-3, 4-(1-isopropyl-3-(1H-pyrrolo[2,3-b]pyridin-5-yl)-1H-pyrazol-4-yl)-N-(pyridin-2-ylmethyl)pyrimidin-2-amine], in test [1], the inhibition at 1 µM is 93% and the Ki was determined as 8.3 nM. The IC50 in test [2] was determined as 1810 nM.
Regarding `C[C@H](O)CNc1nccc(-c2cn(C)nc2-c2cnc3[nH]ccc3c2)n1` [Example B-13, (2S)-1-(4-(1-methyl-3-(1H-pyrrolo[2,3-b]pyridin-5-yl)-1H-pyrazol-4-yl)pyrimidin-2-ylamino)propan-2-ol], in test [1], the Ki came to 22.7 nM. Moreover, the IC50 in test [2] was 6270 nM.
Taken in the same sequence, the figures for `Cc1[nH]c2ncc(-c3nn(C(C)C)cc3-c3ccnc(NC[C@H](C)O)n3)cc2c1Cl` [Example E-3, (2S)-1-(4-(3-(3-chloro-2-methyl-1H-pyrrolo[2,3-b]pyridin-5-yl)-1-isopropyl-1H-pyrazol-4-yl)pyrimidin-2-ylamino)propan-2-ol] were 0.6 nM and 165 nM.
`Cc1cc(-c2nn(C(C)C)cc2-c2ccnc(NC[C@H](C)O)n2)cnc1N` [Example B-3, (2S)-1-(4-(3-(6-amino-5-methylpyridin-3-yl)-1-isopropyl-1H-pyrazol-4-yl)pyrimidin-2-ylamino)propan-2-ol]: in test [1], the inhibition at 1 µM came out at 98% and the Ki is 11 nM. For the same molecule, the IC50 in test [2] turned out to be 815 nM.
In test [1], `C[C@H](O)CNc1nccc(-c2cn(CC#N)nc2-c2cnc3[nH]ccc3c2)n1` [Example C-1, [4-[2-((S)-2-Hydroxy-propylamino)-pyrimidin-4-yl]-3-(1H-pyrrolo[2,3-b]pyridin-5-yl)-pyrazol-1-yl]-acetonitrile] yielded a Ki of 3.9 nM. Also, the IC50 in test [2] amounted to 483 nM.

The values above are taken from patent US7772246B2 (Pfizer Inc., priority 2007, dated 2010).
